# Measurements: patent publication US20120258980A1, “Antibacterial Agent for Drug-Resistant Bacteria, Method for Screening for Same, and Use of Same” (priority 2009, published 2012)
# Like-named read-outs stand apart in the source and are kept apart here.
# Tests used:
# [1] = tested on: methicillin-susceptible S. aureus (MSSA), MRSA and mutants thereof; test: MIC measurement, Test Example 3 (MSSA, MRSA and sequential gyrA/grlA quinolone-resistant mutants); type: cell-based, Staphylococcus aureus; details: Staphylococcus aureus
# From the text: That is, the first-step quinolone-resistant mutants are bacterial strains which are the same as their parent strains (clinical isolates) except that the genes shown in the corresponding parts of Table 1-1 are mutated. The second-step quinolone-resistant mutants are bacterial strains which are the same as the first-step quinolone-resistant mutants except that the genes shown in the corresponding parts of Table 1-1 are further mutated. The third-step quinolone-resistant mutants are bacterial strains which are the same as the second-step quinolone-resistant mutants except that the genes shown in the corresponding parts of Table 1-1 are further mutated. The fourth-step quinolone-resistant strain is a bacterial strain which is the same as the third-step quinolone-resistant mutant bacteria except that the gene shown in the corresponding part of Table 1-1 is further mutated.
# (§1) Each of the bacterial strains listed in Table 1-1 was shake-cultured at 37° C. overnight in 4 mL of a medium (Tryptical Soy Broth: TSB, product of Becton Dickinson and Company). FDA209P was used as a control.
# (§2) After completion of culturing, the resultant culture was suspended in a cation-adjusted Mueller Hinton Broth (CAMHB, product of Becton Dickinson and Company). Then, the obtained bacterial culture was adjusted in absorbance with the CAMHB so that the absorbance at 578 nm of the bacterial culture was adjusted to 0.3 measured by an absorption spectrometer. In addition, the resultant bacterial culture was 500-fold diluted with the CAMHB.
# (§3) Each of the 500-fold diluted, pre-cultured bacterial cultures was added at 50 μL/well to the CAMHB containing the quinolones and the nybomycins at various concentrations (50 μL/well), followed by statically culturing at 37° C. overnight.
# (§4) After completion of culturing, the growth of the bacteria was visually determined based on turbidity to measure MIC in each bacterial strain.
# VRSA clinical isolates = test: microbe, parasite or virus in culture; type: cell-based; details: Staphylococcus aureus
# Description: as §1, §2, §3, §4
# Here, the glycopeptides used were VCM and TEIC. The β-lactam used was OXA.
# Enterococcus faecalis = test: MIC measurement, Test Example 6 (enterococcus); type: cell-based; details: Enterococcus faecalis, read-out: MIC
# Description: as §1, §2, §3, §4
# Quinolones and nybomycins were evaluated for antibacterial activity against Enterococcus faecalis shown in Table 6, wherein the other strains than NCTC12201 and NCTC12203 were subdivided from Shionogi & Co., Ltd (note that these strains are available also from the Department of Bacteriology, Juntendo University). The NCTC strains are both vancomycin-resistant E. faecalis and available from the National Collection of Type Cultures (NCTC).
# [2] = tested on: MRSA, CA-MRSA and MSSA of Staphylococcus aureus; test: MIC measurement, Test Example 4 (MRSA, CA-MRSA and MSSA strains); type: cell-based; details: Staphylococcus aureus
# How it was run: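 S. aureus strains (FDA209P control) grown overnight in TSB at 37° C, resuspended in CAMHB, adjusted to A578 0.3 and diluted 500-fold. Equal volume added to CAMHB with serial compound concentrations, incubated statically overnight at 37° C. MIC read visually as lowest concentration without turbidity.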
structure (smiles),measurement,setting,value
"CC1COc2c(N3CCN(C)CC3)c(F)cc3c(=O)c(C(=O)O)cn1c23 (stereo not drawn) [OFLX, ofloxacin]",MIC,"[1]; MR5867-1, first-step quinolone-resistant mutant, grlA E84K",1 µg/mL
same,MIC,"[1]; MR5867-3, third-step mutant, further grlA S80F",64 µg/mL
same,MIC,"[1]; MR5867-4, fourth-step mutant, further gyrA E88K",> 128 µg/mL
same,MIC,"[1]; MS5935-1, first-step quinolone-resistant mutant, grlA S80F",1 µg/mL
same,MIC,"[1]; MS5935-3, third-step mutant, further grlA E84K",128 µg/mL
same,MIC,"[1]; MS5952-1, first-step quinolone-resistant mutant, grlA S80Y",1 µg/mL
same,MIC,"[1]; MS5952-3, third-step mutant, further grlA A116V",64 µg/mL
same,MIC,"VRSA clinical isolates; VRS1, VRSA, Michigan",32 µg/mL
same,MIC,"VRSA clinical isolates; VRS2, VRSA, Pennsylvania",32 µg/mL
same,MIC,"VRSA clinical isolates; VRS3, VRSA, New York",32 µg/mL
same,MIC,"VRSA clinical isolates; VRS4, VRSA, New York",32 µg/mL
same,MIC,"VRSA clinical isolates; VRS5, VRSA, Michigan",> 128 µg/mL
same,MIC,"VRSA clinical isolates; VRS6, VRSA, Michigan",64 µg/mL
same,MIC,"VRSA clinical isolates; VRS7, VRSA, Michigan",64 µg/mL
same,MIC,"Enterococcus faecalis; E. faecalis 36-15672, quinolone-susceptible enterococci",2 µg/mL
same,MIC,"Enterococcus faecalis; E. faecalis 36-15673, quinolone-susceptible enterococci",2 µg/mL
same,MIC,"Enterococcus faecalis; E. faecalis 36-15678, quinolone-susceptible enterococci",2 µg/mL
same,MIC,"Enterococcus faecalis; E. faecalis 36-15686, quinolone-resistant enterococci",128 µg/mL
same,MIC,"Enterococcus faecalis; E. faecalis 36-15688, quinolone-susceptible enterococci",2 µg/mL
same,MIC,"Enterococcus faecalis; E. faecalis 36-15694, quinolone-resistant enterococci",64 µg/mL
same,MIC,"Enterococcus faecalis; E. faecalis 36-15696, quinolone-susceptible enterococci",2 µg/mL
same,MIC,"Enterococcus faecalis; E. faecalis 36-15703, quinolone-resistant enterococci",64 µg/mL
same,MIC,"Enterococcus faecalis; E. faecalis 36-15716, quinolone-resistant enterococci",128 µg/mL
same,MIC,"Enterococcus faecalis; E. faecalis 36-15718, quinolone-susceptible enterococci",2 µg/mL
same,MIC,"Enterococcus faecalis; E. faecalis 36-15720, quinolone-susceptible enterococci",2 µg/mL
same,MIC,"Enterococcus faecalis; E. faecalis 36-15722, quinolone-resistant enterococci",64 µg/mL
same,MIC,"Enterococcus faecalis; E. faecalis 36-15726, quinolone-resistant enterococci",128 µg/mL
same,MIC,"Enterococcus faecalis; E. faecalis 36-15730, quinolone-susceptible enterococci",4 µg/mL
same,MIC,"Enterococcus faecalis; E. faecalis 36-15736, quinolone-susceptible enterococci",2 µg/mL
same,MIC,"Enterococcus faecalis; E. faecalis 36-15741, quinolone-susceptible enterococci",4 µg/mL
same,MIC,"Enterococcus faecalis; NCTC 12201 / VRE, E. faecalis NCTC12201, vancomycin-resistant (VRE), quinolone-susceptible enterococci",2 µg/mL
same,MIC,"Enterococcus faecalis; NCTC 12203 / VRE, E. faecalis NCTC12203, vancomycin-resistant (VRE), quinolone-susceptible enterococci",2 µg/mL
same,MIC,"[2]; ATCC 29213 / MRSA / MSSA, ATCC 29213, MSSA",0.25 µg/mL
same,MIC,"[2]; COL, MRSA",0.5 µg/mL
same,MIC,"[2]; FDA209P / MRSA / MSSA, FDA209P, MSSA",0.125 µg/mL
same,MIC,"[2]; ISA12-1, MRSA",0.5 µg/mL
same,MIC,"[2]; ISA12-2, MRSA",0.5 µg/mL
same,MIC,"[2]; ISA35-1, MRSA",2 µg/mL
same,MIC,"[2]; ISA37-1, MSSA",0.25 µg/mL
same,MIC,"[2]; ISA49-1, MSSA",0.25 µg/mL
same,MIC,"[2]; ISA51-1, MSSA",0.5 µg/mL
same,MIC,"[2]; ISA56-3, MRSA",0.5 µg/mL
same,MIC,"[2]; ISA58-1, MRSA",0.5 µg/mL
same,MIC,"[2]; ISA62-1, MRSA",0.25 µg/mL
same,MIC,"[2]; ISA73-1, MSSA",0.25 µg/mL
same,MIC,"[2]; KBSA32, MRSA",0.25 µg/mL
same,MIC,"[2]; KBSA34, MRSA",0.5 µg/mL
same,MIC,"[2]; KBSA72, MRSA",> 128 µg/mL
same,MIC,"[2]; KBSA96, MRSA",16 µg/mL
same,MIC,"[2]; KBSA171, MRSA",32 µg/mL
same,MIC,"[2]; KSA24, MRSA",32 µg/mL
same,MIC,"[2]; KSA31, MRSA",8 µg/mL
same,MIC,"[2]; KSA36, MRSA",> 128 µg/mL
same,MIC,"[2]; MRSA / MSSA / NCTC 8325, NCTC 8325, MSSA",0.25 µg/mL
same,MIC,"[2]; MRSA / MSSA / USA300, USA300 FPR3757, CA-MRSA",16 µg/mL
same,MIC,"[2]; MW2, CA-MRSA",0.5 µg/mL
same,MIC,"[2]; N315, MRSA",0.25 µg/mL
